Key:
[1] = tested on: cultured hippocampal neurons; assay: Synaptic clustering of NR2B, PSD-95 and synapsin by immunocytochemistry; format: cell-based, rat; settings: 10 μM for 4 days from 10 DIV; compared to untreated cells
Protocol: (§1) Cultures of dissociated hippocampal neurons from embryonic day 18 rats were prepared as previously described (51). Cultured neurons at 10 days in vitro (DIV) were exposed to arginine N-methyltransferase inhibitor-1 (AMI-1; 2.5 or 10 μM, Enzo Life Sciences) in plating media minus additional glutamate for the indicated times.
(§2) To identify the effects of genetic knock-down of CARM1 on dendritic morphology and synaptic clustering of synapsin, NR2B, and PSD-95, hippocampal neurons were first transfected with the construct pCAG-mGFP-Actin [a gift from Ryohei Yasuda (Addgene plasmid #21948)] at 7 DIV with Lipofectamine 2000 (Invitrogen) following the manufacturer's protocol. After a 2-day incubation, neurons were untreated or transduced with rat CARM1- or PRMT1-specific siRNA or scrambled control siRNA lentiviral particles (5×10^3 viral particles/μl, Santa Cruz) at a multiplicity of infection (MOI) of 4 to ensure efficient infection following the manufacturer's protocol, followed by overnight incubation. After a media change with plating media minus glutamate, cells were incubated for an additional 4 days, and then a portion of the cells was either lysed and used for total RNA isolation and RT-qPCR experiments, lysed and used for immunoblot analysis, or fixed for immunocytochemical analysis.
(§3) Cultures neurons were treated as described above and then fixed in 2% paraformaldehyde/4% sucrose/PBS for 10 min at room temperature (RT) followed by methanol for 20 min at −20° C. The fixed neurons were incubated in preblock buffer (20 mM phosphate buffer, pH 7.4, 5% normal goat serum, 0.05% Triton X-100, and 450 mM NaCl) at 4° C. overnight with the following primary antibodies: mouse anti-CARM1 (1:200, Cell Signaling), rabbit anti-CARM1 (1:200, Cell Signaling), rabbit anti-NR2B (1:200, Millipore), mouse anti-NR2B (1:150, Thermo Fisher), mouse anti-PSD-95 (1:100, Cell Signaling), mouse anti-synapsin (1:200, Santa Cruz), or rabbit anti-synapsin (1:250, Millipore), followed by incubation with the appropriate secondary antibodies (Alexa 488-anti-rabbit or 546-anti-mouse; each at 1:1000, Invitrogen) in preblock buffer at RT for 1 hr. After immunostaining, the cells were mounted as previously described (50) and viewed on a Zeiss LSM 710 laser-scanning confocal microscope. Images were acquired under a 63× or 100× oil immersion objective lens and scanned for further analysis.
(§4) Confocal microscope images for each treatment from each of 3 independent sets of experiments were imported into Image J (NIH) software. To determine the proportion of CARM1 signal that co-localizes with PSD-95 or synapsin, Image J (NIH) software was used with Just Another Colocalization (JACoP) plugin set. A Mander's coefficient was calculated and the average value (N=10) was further analyzed. Dendritic spine length (from dendritic shaft to the top of spine head) and dendritic spine width (diameter of the widest part of spine head) were measured and dendritic spine density (number of spines/10 μm of dendrite) was also counted. Dendritic spine shape (stubby, mushroom, or filopodium) was identified as described in previous research (5, 21). After measuring spine length (the distance from the base of the neck to the furthest point on the spine heads) and diameter of spine head and neck, the ratio from each spine was calculated and compared. […] Mushroom spines were judged if the diameter of the head was three times larger than the diameter of their necks. Stubby spines were judged if the diameter of the neck was similar to the total length of the spine.

HuD-mRNA binding = settings: hippocampal neurons in vitro; previous studies (ref. 22); cited from earlier work
[2] = tested on: cultured hippocampal neurons; assay: Dendritic spine morphology of GFP-Actin transfected neurons by confocal microscopy; format: cell-based, rat; settings: for spine head width: untreated 0.753±0.038 μm; for spine length: untreated 1.819±0.064 μm; for spine density: untreated 4.58±0.43
Protocol: as §1, §2, §3, §4

[3] = inhibitor treatment for 4 days, compared with untreated

O=C(Nc1ccc2c([O-])cc(S(=O)(=O)[O-])cc2c1)Nc1ccc2c([O-])cc(S(=O)(=O)[O-])cc2c1.[Na+].[Na+].[Na+].[Na+] [AMI-1, 7,7′-(carbonylbis(azanediyl))bis(4-oxidonaphthalene-2-sulfonate), sodium salt]
NR2B number of clusters [1]: increase | NR2B synaptic cluster size [1]: increase | PSD-95 number of clusters [1]: increase | PSD-95 synaptic cluster size [1]: increase | synapsin synaptic cluster number [1]: no difference | synapsin synaptic cluster size [1]: no difference | HuD-mRNA binding and the stability and expression of NTFs, including BDNF (HuD-mRNA binding): increased | spine head width ([2]; 2.5 μM for 4 days from 10 DIV): 0.899±0.052 μm | spine length ([2]; 2.5 μM for 4 days from 10 DIV): 1.748±0.093 μm | spine density ([2]; 2.5 μM for 4 days from 10 DIV): 4.49±0.54 spines per 10 μm dendrite | spine head width ([2]; 10 μM for 4 days from 10 DIV, P=0.0085): 0.982±0.044 μm | spine length ([2]; 10 μM for 4 days from 10 DIV, not statistically significant): 1.634±0.072 μm | spine density ([2]; 10 μM for 4 days from 10 DIV, no significant difference): 5.54±0.62 spines per 10 μm dendrite | proportion of filopodia-type, including thin-type, spines [2, 3]: dramatic decrease | proportion of mushroom-type spines [2, 3]: significantly increased
